# Measurements: article PMC3536977, “4,6-α-Glucanotransferase activity occurs more widespread in Lactobacillus strains and constitutes a separate GH70 subfamily” (Applied Microbiology and Biotechnology, 2012)
# Biological target: T1, 4,6-αGT-ML4 (Limosilactobacillus reuteri, UniProt Q5SBN1)
# T1 construct: full-length 180 kDa
# Assay: 1H NMR / TLC / HPAEC of product mixture
# Format: biochemical
# Settings: sodium acetate 25 mM pH 4.7, 1 mM CaCl2, 37 °C, 40 h, 25 μg/ml enzyme
# T1 sequence (Q5SBN1 entry or part of it): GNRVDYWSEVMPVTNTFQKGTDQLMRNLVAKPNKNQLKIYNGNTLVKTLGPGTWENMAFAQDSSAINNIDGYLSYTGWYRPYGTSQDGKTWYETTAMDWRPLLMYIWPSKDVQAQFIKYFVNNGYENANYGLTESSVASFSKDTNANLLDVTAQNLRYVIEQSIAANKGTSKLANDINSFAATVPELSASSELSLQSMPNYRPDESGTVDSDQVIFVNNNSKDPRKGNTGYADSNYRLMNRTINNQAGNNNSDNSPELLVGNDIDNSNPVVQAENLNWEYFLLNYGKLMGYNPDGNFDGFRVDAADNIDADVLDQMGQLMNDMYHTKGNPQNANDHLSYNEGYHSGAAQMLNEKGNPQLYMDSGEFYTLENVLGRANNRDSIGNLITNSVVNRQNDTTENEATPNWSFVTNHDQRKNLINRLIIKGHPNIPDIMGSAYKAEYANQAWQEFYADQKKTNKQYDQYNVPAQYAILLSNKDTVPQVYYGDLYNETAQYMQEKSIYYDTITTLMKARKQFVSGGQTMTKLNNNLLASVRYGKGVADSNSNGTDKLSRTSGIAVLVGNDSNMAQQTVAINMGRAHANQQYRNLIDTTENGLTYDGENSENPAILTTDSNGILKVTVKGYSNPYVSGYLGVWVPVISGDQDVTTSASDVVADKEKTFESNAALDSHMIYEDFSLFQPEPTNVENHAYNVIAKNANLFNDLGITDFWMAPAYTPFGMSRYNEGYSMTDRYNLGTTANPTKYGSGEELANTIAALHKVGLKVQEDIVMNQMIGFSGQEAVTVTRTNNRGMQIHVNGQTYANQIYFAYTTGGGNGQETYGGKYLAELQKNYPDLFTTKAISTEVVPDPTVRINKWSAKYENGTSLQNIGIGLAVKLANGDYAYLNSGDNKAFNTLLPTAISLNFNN
smiles,measurement,value
"OC[C@H]1O[C@H](O[C@H]2[C@H](O)[C@@H](O)[C@@H](O[C@H]3[C@H](O)[C@@H](O)[C@@H](O[C@H]4[C@H](O)[C@@H](O)[C@@H](O[C@H]5[C@H](O)[C@@H](O)[C@@H](O[C@H]6[C@H](O)[C@@H](O)C(O)O[C@@H]6CO)O[C@@H]5CO)O[C@@H]4CO)O[C@@H]3CO)O[C@@H]2CO)[C@H](O)[C@@H](O)[C@@H]1O (stereo partly shown) [DP6, maltohexaose]",1H NMR / TLC / HPAEC of product mixture,"generated from maltohexaose, showing a linkage ratio"
